Results as given in paper PMC9855104, “Use of High-Dose Nebulized Colistimethate in Patients with Colistin-Only Susceptible Acinetobacter baumannii VAP: Clinical, Pharmacokinetic and Microbiome Features” (Antibiotics, 2023).
Entries after “also recorded” stand apart in the source; their conditions may differ. Peptide text beside a SMILES is read from it.

Key:
[1] = cited from earlier work
Protocol: Despite the recent introduction of new antibiotics against difficult-to-treat bacteria, colistin is still used in the critically ill setting, especially as part of combination therapies. This drug is a antibiotic; it is administered as intravenous colistimethate (CMS) and then undergoes extensive plasmatic hydrolysis. CMS is mainly metabolized by the renal route apart from the amount that is modified to colistin. This agent is cleared by extra-renal, yet unknown, mechanisms, but its plasmatic levels may increase in the presence of renal failure due to the reduced clearance a ... || From a pharmacokinetic standpoint, CMS nebulization may overcome its negligible ELF penetration after intravenous administration. Although many factors may interfere with the reliability of the detected lung antibiotics concentration, including the diagnostic technique, the binding to inflammatory molecules, and the heterogeneity of lung aeration, it is widely accepted that CMS nebulization is the only strategy to obtain alveolar levels above MIC for mostly Gram-negative MDR pathogens. When treating VAP due to COS bacteria, a correct drug dose and nebulizer strategy should be reco ...

[2] = ELF pharmacokinetics of colistin and CMS after nebulization (micro-BAL, LC-MS/MS); type: in vivo, ICU patients
Protocol: According to patients’ respiratory status, two micro-bronchoalveolar lavages (BALs) (40 mL of sterile 0.9% saline solution were blindly instilled through a telescopic catheter and immediately aspirated in a trap) were performed at steady state, before nebulization and 1 h after the end. ELF colistin concentration (COLELF) was calculated from BAL concentration (COLBAL) using urea as a dilution marker: COLELF = COLBAL X urea dilution index (plasma urea concentration/BAL urea concentration).
Purification and separation of colistin and CMS were performed using and modifying the Gobin assay. BAL samples were extracted by solid-phase extraction followed by evaporation to dryness and reconstitution in mobile phase. The chromatographic separation was carried out on an AQUITY UPLC C18 column. Polymyxin B was used as internal standard. The detection was performed on a triple quadrupole tandem mass spectrometer using multi-reaction monitoring via an electrospray ionization source with positive ionization mode.

[3] = Safety and adverse events of colistin nebulization (DHHS-CTCAE version 3.0); type: in vivo, ICU patients; conditions: 5 MIU q8, vibrating mesh nebulizer; 134 patients, 1376 days of nebulization
Protocol: Patients received 5 MIU of CMS (Colimycine®, Sanofi, Paris, France) dissolved in 6 mL of saline solution by nebulization over 30 min using a vibrating-mesh nebulizer (Aeroneb Pro®, Aerogen, Galway, […]) every 8 h. Solutions for nebulization were freshly prepared. During aerosol delivery, all patients were sedated and received assisted/controlled mechanical ventilation with a tidal volume of 6–8 mL/kg of predicted body weight and respiratory rates of 12–15 cycles/min. The humidifier was removed and the nebulizer was inserted near the Y-piece connector on the inspiratory arm
VAP, septic shock, and acute kidney injury requiring continuous […] replacement therapy were defined according to current recommendations. VAP was diagnosed in the presence of radiological and clinical signs consisting of a new and persistent infiltrate on the chest radiograph associated with two of the three following criteria: purulent tracheal aspirates, hyperthermia > 38 °C or hypothermia < 36 °C, and peripheral leukocytosis > 10,000/μL or < 1500/μL. […] Safety and adverse events (AE) were determined through the biochemical abnormalities documented in medical records according to the Department of Health and Human Services—Common Terminology Criteria for Adverse Events (DHHS-CTCAE version 3.0) classification. […]

[4] = tested on: Acinetobacter baumannii isolates; test: Minimum inhibitory concentration of AB isolates; type: cell-based; conditions: median [interquartile range]; values available for 79 patients; Micronaut AST system-based BMD, VITEK 2 AST-N397 card; EUCAST version 11.0
Protocol: AB isolates were identified by using matrix-assisted laser desorption ionization-time of flight mass spectrometry (MALDI-TOF MS). Minimum inhibitory concentrations (MICs) were determined by a Micronaut AST system-based BMD, VITEK 2 AST-N397 card, according to the manufacturer’s instructions. EUCAST (version 11.0, 2021) clinical breakpoints were used to interpret MICs.

[5] = tested on: multidrug-resistant / COS Gram-negative VAP; conditions: cited from earlier work
Description: There is pre-clinical evidence to support vibrating-mesh nebulizers, over jet and ultrasonic ones.

[6] = in vivo; cited from earlier work
Description: In addition, the observed safety profile may be further improved by correct CMS ...

[7] = following 24 h of dosing, vibrating meshes, ten patients with MDR VAP
[8] = 326 patients with COS Gram-negative VAP, aerosolized 2 MIU q 8 h, jet nebulizer

Row | Molecule | Samples with colistin ELF concentrations above 10 mcg/mL ([1]; 20 patients, 1 MIU nebulization, jet and ultrasonic machines, samples at 1 h after the aerosol) [%] | Trough-predicted colistin ELF level, 3 MII nebulized CMS [1, 7] [µg/mL] | Trough-predicted colistin ELF level, 5 MIU nebulized CMS [1, 7] [µg/mL] | ELF penetration after intravenous administration (in words) [1] | ELF concentration one hour after nebulization ([2]; median [IQR], 7 patients, after 72 h of nebulized therapy (CMS 5 MIU q8), micro-BAL, urea dilution index, UPLC C18, tandem MS) | ELF colistin concentrations relative to CRAB minimal-inhibitory concentration (in words) ([2]; nebulized CMS 5 MIU q8) | Drug-related / pulmonary adverse events of nebulization (in words) [3] | MIC [4] | Clinical cure rate vs controls treated with intravenous antibiotics (in words) ([5]; 5 MIU q8 h, vibrating plate nebulizer, 44 patients with multidrug-resistant AB and Pseudomonas aeruginosa vs 122 controls) | DAY-14 clinical failure rate (in words) [5, 8] | Mortality (in words) [5, 8] | Bronchospasm [6] [%] | Episodes of bronchospasm (in words) [6] | Neuromuscular toxicity [6] [%] | Reduction in the rate of renal failure [6] [%]
1 | CC[C@H](C)CCCCC(=O)N[C@@H](CCN)C(=O)N[C@H](C(=O)N[C@@H](CCN)C(=O)N[C@H]1CCNC(=O)[C@H]([C@@H](C)O)NC(=O)[C@H](CCN)NC(=O)[C@H](CCN)NC(=O)[C@H](CC(C)C)NC(=O)[C@@H](CC(C)C)NC(=O)[C@H](CCN)NC1=O)[C@@H](C)O [colistin] (HELM PEPTIDE1{[CC[C@H](C)CCCCC(=O)[*:2]].[Dab].T.[Dab].[Dab].[Dab].[dL].L.[Dab].[Dab].T}$PEPTIDE1,PEPTIDE1,5:R3-11:R2$$$V2.0) | 25 | 120.4 | 200.7 | minimal | 121.7 [40.1–143.1] mcg/mL | far above | did not observe any; also recorded: without observing any | 1 [0.5–1] mcg/mL | – | – | – | – | – | – | –
2 | colistimethate [CMS] | – | – | – | negligible | – | – | did not observe any | – | similar | significantly lower | without affecting | 2 | did not report any | 3 | 33
